Reference: BindingDB's records for patent US20240025919 (Genentech, 2024)

Legend:
GTPase KRas = GTPase KRas (Homo sapiens, UniProt P01116); assay: KRAS WT Biochemical Assay
Method: Biochemical compound potencies are assessed by evaluating inhibition of SOS1-mediated nucleotide exchange in KRAS WT. In this assay, the SOS1-promoted exchange of fluorescently-labeled GDP (BOPIDY-GDP) is monitored by time-resolved fluorescence resonance energy transfer (TR-FRET). Compounds solubilized in DMSO are dispensed as concentration series into 384-well white assay plates. A preformed complex of 0.06 nM biotin-tagged recombinant human KRAS WT, 15 nM GDP and 0.06 nM terbium-labeled streptavidin (CisBIO) prepared in 10 uL/well assay buffer (20 mM HEPES, pH 7.5, 50 mM NaCl, 10 mM MgCl2, 0.01% Tween-20 and 1 mM dithiothreitol) is added and allowed to incubate for 10-minutes at room temperature. The reaction is initiated with the addition of 5 uL 300 nM recombinant human SOS1 and 300 nM BODIPY-GDP in assay buffer. After a 120-minute incubation, the fluorescence is measured with excitation at 337 nm and emission at 490 and 520 nm.

GTPase KRas [G12D] = GTPase KRas [G12D] (Homo sapiens, UniProt P01116, G12D); assay: KRAS G12D LoEnz Biochemical Assay
Sequence of GTPase KRas [G12D] (P01116 whole entry G12D): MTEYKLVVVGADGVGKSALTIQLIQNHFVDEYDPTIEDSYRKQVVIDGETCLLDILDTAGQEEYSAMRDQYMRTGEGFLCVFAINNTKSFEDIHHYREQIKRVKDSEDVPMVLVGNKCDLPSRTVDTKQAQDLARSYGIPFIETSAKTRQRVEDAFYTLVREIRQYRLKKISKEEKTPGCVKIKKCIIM
Method: Biochemical compound potencies are assessed by evaluating inhibition of SOS1I-mediated nucleotide exchange in KRAS […]. In this assay, the SOS1-promoted exchange of fluorescently-labeled GDP (BOPIDY-GDP) is monitored by time-resolved fluorescence resonance energy transfer (TR-FRET). Compounds solubilized in DMS0 are dispensed as concentration series into 384-well white assay plates. A preformed complex of biotin-tagged recombinant human KRAS (0.06 nM mutant G1 2D) and 0.06 nM terbium-labeled streptavidin (CisBIO) prepared in 10 uL/well assay buffer (20 mM HEPES, pH 7.5, 50 mM NaCl, 10 mMMMgCl2, 0.0100 Tween-20 and 1 mM dithiothreitol) is added and allowed to incubate for 10-minutes at room temperature. The reaction is initiated with the addition of 5 uL 300 nM recombinant human SOS1 and 300 nM BODIPY-GDP in assay buffer. After a 120-minute incubation, the fluorescence is measured with excitation at 337 nm and emission at 490 and 520 nm. The TR-FRET ratio is determined as the fluorescence at 520 nm divided by the fluorescence at 490 nm multiplied by 10,000. The results are normalized to percent inhibition based on control samples: DMSO (0% inhibition) and control compound at a concentration that inhibits completely (100% inhibition).

Sequence of GTPase KRas (P01116 whole entry): as the sequence (P01116 whole entry G12D) above, with D12G counted along it

| Structure (SMILES) | IC50 (GTPase KRas) | IC50 (GTPase KRas [G12D]) |
| --- | --- | --- |
| Fc1c(-c2cccc3cccc(Cl)c23)nc2c3c(nc(OC[C@@]45CCCN4C[C@H](F)C5)nc13)N1C[C@H]3CC[C@H](N3)[C@H]1CO2 [US20240025919, Compound 2] | 922 nM | 15.2 nM |
| C#Cc1c(F)ccc2cccc(-c3nc4c5c(nc(OCC67CCN6CC(F)(F)C7)nc5c3F)N3C[C@H]5CC[C@H](N5)[C@H]3[C@H](C)O4)c12 (some centres undefined) [US20240025919, Compound 22] | – | 2.99 nM |
| C[C@@H]1Oc2nc(-c3cc(N)c(F)c(F)c3CC(F)F)c(F)c3cc(OC[C@@H]4CC[C@H]5COCCN54)nc(c23)N2C[C@H]3CC[C@H](N3)[C@@H]12 [US20240025919, Compound 158] | – | 3.39 nM |
